Measured values taken from article PMC4768790 (The New phytologist, 2015).

Columns and labels:
HopZ1a = HopZ1a (Pseudomonas syringae, UniProt Q6VE93); assay: in vitro autoacetylation assay, […] autoradiography; format: biochemical; details: 100 nM IP6, [14C]-acetyl-CoA, 50 mM HEPES pH 8.0, 30°C, 1 h; activator
PopP2 = PopP2 (Ralstonia pseudosolanacearum, UniProt Q8Y125); details: labelled compound; 50 mM HEPES pH 8.0, 30°C, 1 h
PopP2, sequence (Q8Y125 1-488): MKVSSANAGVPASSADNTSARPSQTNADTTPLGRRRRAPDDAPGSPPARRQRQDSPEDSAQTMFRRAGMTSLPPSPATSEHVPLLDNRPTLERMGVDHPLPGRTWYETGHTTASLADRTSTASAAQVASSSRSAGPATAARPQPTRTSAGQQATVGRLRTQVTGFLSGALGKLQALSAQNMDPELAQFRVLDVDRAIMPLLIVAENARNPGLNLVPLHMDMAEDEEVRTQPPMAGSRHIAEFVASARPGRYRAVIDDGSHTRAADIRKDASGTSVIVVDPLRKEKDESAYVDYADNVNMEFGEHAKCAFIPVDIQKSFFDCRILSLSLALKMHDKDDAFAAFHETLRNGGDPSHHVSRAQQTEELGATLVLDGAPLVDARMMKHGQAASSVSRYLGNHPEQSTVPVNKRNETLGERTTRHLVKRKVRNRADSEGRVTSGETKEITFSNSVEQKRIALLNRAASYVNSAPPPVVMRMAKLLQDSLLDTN

HopZ1a, sequence (Q6VE93 whole entry): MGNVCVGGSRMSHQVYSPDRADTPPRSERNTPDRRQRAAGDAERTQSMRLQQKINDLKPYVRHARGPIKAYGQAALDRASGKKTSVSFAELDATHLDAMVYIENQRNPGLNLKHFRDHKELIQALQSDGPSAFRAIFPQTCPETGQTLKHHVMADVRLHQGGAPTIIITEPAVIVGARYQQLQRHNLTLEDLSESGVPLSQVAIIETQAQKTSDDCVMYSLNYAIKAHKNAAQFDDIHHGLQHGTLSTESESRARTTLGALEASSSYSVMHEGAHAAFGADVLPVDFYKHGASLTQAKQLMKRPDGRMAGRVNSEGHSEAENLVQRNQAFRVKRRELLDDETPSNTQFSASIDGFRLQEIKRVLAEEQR

Structure (SMILES): O=P(O)(O)O[C@H]1[C@H](OP(=O)(O)O)[C@@H](OP(=O)(O)O)[C@H](OP(=O)(O)O)[C@@H](OP(=O)(O)O)[C@H]1OP(=O)(O)O [IP6]
- enhancement of autoacetylation by IP6 (HopZ1a): c. 40

Structure (SMILES): CC(=O)SCCNC(=O)CCNC(=O)[C@H](O)C(C)(C)COP(=O)(O)OP(=O)(O)OC[C@H]1O[C@@H](n2cnc3c(N)ncnc32)[C@H](O)[C@@H]1OP(=O)(O)O [acetyl-CoA]
- in vitro autoacetylation assay, 14C autoradiography (PopP2): the mutant PopP2(S447AS449A) is no longer autoacetylated
